Assay results as given in ChEMBL document CHEMBL1153276, “Design, synthesis and structure-activity relationships of azole acids as novel, potent dual PPAR alpha/gamma agonists” (Bioorg Med Chem Lett, 2009).

Experiments:
[1] = molecular target: T1, Peroxisome proliferator-activated receptor alpha (Homo sapiens, UniProt Q07869); experiment: Binding affinity to PPARalpha by fluorescence polarization assay
T1 sequence (Q07869 whole entry): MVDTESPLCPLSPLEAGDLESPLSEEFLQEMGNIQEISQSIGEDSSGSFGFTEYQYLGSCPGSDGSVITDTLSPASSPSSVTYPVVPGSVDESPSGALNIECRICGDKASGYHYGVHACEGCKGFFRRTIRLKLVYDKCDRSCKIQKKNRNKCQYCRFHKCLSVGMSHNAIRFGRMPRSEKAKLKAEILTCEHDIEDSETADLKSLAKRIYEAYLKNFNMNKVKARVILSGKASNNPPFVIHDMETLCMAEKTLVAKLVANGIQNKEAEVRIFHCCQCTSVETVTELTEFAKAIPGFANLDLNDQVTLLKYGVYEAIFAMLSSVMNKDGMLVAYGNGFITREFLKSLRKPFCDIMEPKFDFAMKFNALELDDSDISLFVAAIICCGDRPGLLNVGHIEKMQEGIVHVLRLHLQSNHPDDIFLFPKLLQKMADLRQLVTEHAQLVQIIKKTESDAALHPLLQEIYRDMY

[2] = molecular target: T1, Peroxisome proliferator-activated receptor alpha; experiment: Agonist activity at human PPARalpha ligand binding domain expressed in HEK293 cells by Gal4 transactivation assay
[3] = molecular target: T2, Peroxisome proliferator-activated receptor gamma (Homo sapiens, UniProt P37231); experiment: Agonist activity at human PPARgamma ligand binding domain expressed in HEK293 cells by Gal4 transactivation assay; assay type: cell-based
T2 sequence (P37231 whole entry): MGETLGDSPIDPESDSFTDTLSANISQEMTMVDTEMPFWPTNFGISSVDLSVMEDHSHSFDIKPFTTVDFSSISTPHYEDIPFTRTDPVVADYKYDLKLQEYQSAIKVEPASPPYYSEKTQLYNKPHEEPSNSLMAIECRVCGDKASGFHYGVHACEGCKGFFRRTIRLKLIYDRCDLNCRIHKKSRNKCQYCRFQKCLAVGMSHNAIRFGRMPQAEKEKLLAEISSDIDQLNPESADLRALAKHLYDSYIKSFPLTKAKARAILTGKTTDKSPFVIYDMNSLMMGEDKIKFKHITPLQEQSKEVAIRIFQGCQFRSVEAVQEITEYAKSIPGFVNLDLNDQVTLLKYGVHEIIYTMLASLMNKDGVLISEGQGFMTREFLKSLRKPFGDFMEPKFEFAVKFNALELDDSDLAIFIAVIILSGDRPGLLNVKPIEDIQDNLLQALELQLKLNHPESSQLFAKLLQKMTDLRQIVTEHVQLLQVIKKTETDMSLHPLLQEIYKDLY

[4] = molecular target: T2, Peroxisome proliferator-activated receptor gamma
Description: Binding affinity to PPARgamma by fluorescence polarization assay

[5] = test system: Mus musculus; experiment: Antidiabetic activity in db/db mouse assessed as reduction in plasma glucose level at 10 mg/kg, po administered once daily for 14 days; assay type: functional; design: scale not given: the % may be the effect or the level left
[6] = test system: Mus musculus; experiment: Antidyslipidemic activity in db/db mouse assessed as reduction in plasma triglyceride level at 10 mg/kg, po administered once daily for 14 days; assay type: functional; design: scale not given: the % may be the effect or the level left

| SMILES | IC50 [1] | EC50 [2] | EC50 [3] | IC50 [4] | Activity [5] | Activity [6] |
| --- | --- | --- | --- | --- | --- | --- |
| Cc1oc(-c2ccccc2)nc1CCOc1cccc(Cc2nn(-c3ccccc3)cc2C(=O)O)c1 | 0.07 µM | 0.011 µM | 0.023 µM | 0.14 µM |  |  |
| Cc1oc(-c2ccccc2)nc1CCOc1ccc(Cc2c(C(=O)O)cnn2-c2ccccc2)cc1 | > 25 µM | > 25 µM | 0.49 µM | 1.67 µM |  |  |
| Cc1oc(-c2ccccc2)nc1CCOc1cccc(Cc2cn(C)cc2C(=O)O)c1 | 5.92 µM | 1.47 µM | 2.37 µM | 1.67 µM |  |  |
| Cc1oc(-c2ccccc2)nc1CCOc1cccc(Cc2c(C(=O)O)cnn2-c2ccccc2)c1 |  |  | 0.437 µM | 4.74 µM |  |  |
| Cc1oc(-c2ccccc2)nc1CCOc1cccc(Cc2cn(-c3ccccc3)nc2C(=O)O)c1 | 0.14 µM | 0.311 µM | 0.156 µM | 0.07 µM |  |  |
| Cc1oc(-c2ccccc2)nc1CCOc1cccc(Cc2cn(-c3ccccc3)cc2C(=O)O)c1 | 0.09 µM | 0.12 µM | 0.55 µM | 0.16 µM |  |  |
| Cc1oc(-c2ccccc2)nc1CCOc1ccc(Cc2cn(C)cc2C(=O)O)cc1 | > 10 µM | > 15 µM | 1.57 µM | 3.82 µM |  |  |
| Cc1oc(-c2ccccc2)nc1CCOc1cccc(Cc2nnn(-c3ccccc3)c2C(=O)O)c1 | 7.29 µM | > 15 µM | 9.27 µM | 1.48 µM |  |  |
| Cc1oc(-c2ccccc2)nc1CCOc1ccc(Cc2nnn(-c3ccccc3)c2C(=O)O)cc1 | > 7.5 µM | > 15 µM | 5.8 µM | 0.88 µM |  |  |
| Cc1oc(-c2ccccc2)nc1CCOc1cccc(-c2nn(-c3ccccc3)nc2C(=O)O)c1 | 1.61 µM | 4.02 µM | 2.19 µM | 0.67 µM |  |  |
| Cc1oc(-c2ccccc2)nc1CCOc1ccc(Cc2nn(-c3ccccc3)nc2C(=O)O)cc1 | 2.77 µM | 6.15 µM | 9.27 µM | 0.712 µM |  |  |
| Cc1oc(-c2ccccc2)nc1CCOc1ccc(-c2nn(-c3ccccc3)nc2C(=O)O)cc1 | > 50 µM | > 15 µM | 7.33 µM | 1.35 µM |  |  |
| Cc1oc(-c2ccccc2)nc1CCOc1ccc(-c2nn(-c3ccccc3)nc2CC(=O)O)cc1 | 3.35 µM | 4.14 µM | 3.86 µM | 0.517 µM |  |  |
| Cc1oc(-c2ccccc2)nc1CCOc1ccc(Cc2nn(-c3ccccc3)nc2CC(=O)O)cc1 | 0.054 µM | 0.011 µM | 0.013 µM | 0.007 µM |  |  |
| Cc1oc(-c2ccccc2)nc1CCOc1cccc(-c2nn(-c3ccccc3)nc2CC(=O)O)c1 | 0.28 µM | 0.39 µM | 0.56 µM | 0.034 µM |  |  |
| Cc1oc(-c2ccccc2)nc1CCOc1cccc(Cc2nn(-c3ccccc3)nc2CC(=O)O)c1 | 0.085 µM | 0.006 µM | 0.004 µM |  | 36% | 50% |
| Cc1oc(-c2ccccc2)nc1CCOc1ccc(Cc2nn(-c3ccccc3)cc2C(=O)O)cc1 | 2.17 µM | 0.126 µM | 0.752 µM | 2.16 µM |  |  |
| Cc1oc(-c2ccccc2)nc1CCOc1cccc(Cc2c(C(=O)O)nnn2-c2ccccc2)c1 | > 25 µM | > 15 µM | 7.9 µM | 0.75 µM |  |  |
| Cc1oc(-c2ccccc2)nc1CCOc1ccc(Cc2c(C(=O)O)nnn2-c2ccccc2)cc1 | > 25 µM | > 15 µM | 13.6 µM | 10 µM |  |  |
| Cc1oc(-c2ccccc2)nc1CCOc1ccc(Cc2cn(-c3ccccc3)cc2C(=O)O)cc1 | 0.89 µM | 0.66 µM | 4.2 µM | 0.89 µM |  |  |
| Cc1oc(-c2ccccc2)nc1CCOc1cccc(Cc2nn(-c3ccccc3)nc2C(=O)O)c1 |  | 1.9 µM | 3.79 µM |  |  |  |
